Measured values published in patent publication US9409884B2 (Rigel Pharmaceuticals, Inc., priority 2012, dated 2016).

biological target: AMPK; experiment: AMPK activation, enzyme-linked immunosorbent assay; type: biochemical; conditions: Table 8, compounds of Table 1
Experimental: Compounds of Table 1 were assayed for their ability to activate AMPK using an enzyme-linked immunosorbent assay.
Compounds of Table 2 were assayed for their ability to activate AMPK using an enzyme-linked immunosorbent assay.
Compounds of Table 3 were assayed for their ability to activate AMPK using an enzyme-linked immunosorbent assay.
Compounds of Table 4 were assayed for their ability to activate AMPK using an enzyme-linked immunosorbent assay.
Compounds of Table 5 were assayed for their ability to activate AMPK using an enzyme-linked immunosorbent assay.
Compounds of Table 6 were assayed for their ability to activate AMPK using an enzyme-linked immunosorbent assay.
Compounds of Table 7 were assayed for their ability to activate AMPK using an enzyme-linked immunosorbent assay.

EC50 [µM]	SMILES
< 0.1	O=C(NC1CCN(Cc2ccc(F)cc2)CC1)c1ccc(OC2CCN(c3ccc(C(F)(F)F)cc3)CC2)nc1 [Compound 1-11, N-(1-(4-fluorobenzyl)piperidin-4-yl)-6-(1-(4-(trifluoromethyl)phenyl)piperidin-4-yloxy)nicotinamide]
1 to 5	O=C(NC1CCNCC1)c1cc2cc(OC3CCN(c4ccc(C(F)(F)F)cc4)CC3)ccc2s1 [Compound 1-150, N-(piperidin-4-yl)-5-(1-(4-(trifluoromethyl)phenyl)piperidin-4-yloxy)benzo [b]thiophene-2-carboxamide]
1 to 5	CC(C)(C)OC(=O)N1CCC(NC(=O)c2ccnc(OC3CCN(c4ccc(C(F)(F)F)cc4)CC3)c2)CC1 [Compound 1-15, tert-butyl 4-(2-(1-(4-(trifluoromethyl)phenyl)piperidin-4-yloxy)isonicotinamido) piperidine-1-carboxylate]
< 0.1	O=C(NC1CCN(Cc2ccc(OC(F)(F)F)cc2)CC1)c1cc2cc(O[C@@H]3CCN(Cc4ccc(-n5cccn5)cc4)C[C@H]3F)ccc2o1 [Compound 1-169, 5-((3,4-trans)-1-(4-(1H-pyrazol-1-yl)benzyl)-3-fluoropiperidin-4-yloxy)-N-(1-(4-(trifluoromethoxy)benzyl)piperidin-4-yl)benzofuran-2-carboxamide]

same assay, conditions: Table 9, compounds of Table 2

EC50 [µM]	SMILES
1 to 5	NC(=O)c1ccc(CN2CCC(NC(=O)c3ccc4[nH]c5c(c4c3)CN(Cc3ccc(C(F)(F)F)cc3)CC5)CC2)cc1 [Compound 2-52, N-(1-(4-carbamoylbenzyl)piperidin-4-yl)-2-(4-(trifluoromethyl)benzyl)-2,3,4,5-tetrahydro-1H-pyrido[4,3-b]indole-8-carboxamide]

same assay, conditions: Table 10, compounds of Table 3

EC50 [µM]	SMILES
1 to 10	O=C(NC1CCN(Cc2cccnc2)CC1)c1ccc2c(c1)CN(Cc1ccc(F)cc1)CC2 [Compound 3-35, 2-(4-fluorobenzyl)-N-(1-(pyridin-3-ylmethyl)piperidin-4-yl)-1,2,3,4-tetrahydroisoquinoline-7-carboxamide]

same assay, conditions: Table 12, compounds of Table 5

EC50 [µM]	SMILES
< 1	CC(C)(C)OC(=O)NCCCNC(=O)c1ccc(OC2CCN(Cc3ccc(C(F)(F)F)cc3)CC2)cc1 [Compound 5-95, tert-butyl 3-(4-(1-(4-(trifluoromethyl)benzyl)piperidin-4-yloxy)benzamido) propylcarbamate]
< 1	N#Cc1ccc(CN2CCC(Oc3ccc(C(=O)NC4CCN(Cc5ccccn5)CC4)cc3)CC2)cc1 [Compound 5-85, 4-(1-(4-cyanobenzyl)piperidin-4-yloxy)-N-(1-(pyridin-2-ylmethyl)piperidin-4-yl)benzamide]
< 1	O=C(NC1CCN(Cc2ccccc2)CC1)c1ccc(OC2CCN(c3ccc(C(F)(F)F)cc3)CC2)c(F)c1 [Compound 5-23, N-(1-benzylpiperidin-4-yl)-3-fluoro-4-(1-(4-(trifluoromethyl)phenyl)piperidin-4-yloxy)benzamide]
< 1	CC(C)Oc1ccc(CN2CCC(Oc3cccc(C(=O)NC4CCN(Cc5ccc(C#N)cc5)CC4)c3)CC2)cc1 [Compound 5-121, N-(1-(4-cyanobenzyl)piperidin-4-yl)-3-(1-(4-isopropoxybenzyl)piperidin-4-yloxy)benzamide]
1 to 10	O=C(NC1CCN(Cc2ccccc2)CC1)c1ccc(OC2CCN(c3ccco3)CC2)c(Cl)c1 [Compound 5-11, N-(1-benzylpiperidin-4-yl)-3-chloro-4-(1-(furan-2-yl)piperidin-4-yloxy)benzamide]
< 1	O=C(NC1CCN(Cc2ccccc2)CC1)c1ccc(OC2CCN(Cc3ccc(OC(F)(F)F)cc3)CC2)c(F)c1 [Compound 5-57, N-(1-benzylpiperidin-4-yl)-3-fluoro-4-(1-(4-(trifluoromethoxy)benzyl)piperidin-4-yloxy)benzamide]
< 1	CC(C)(C)OC(=O)N1CCC(NC(=O)c2ccc(OC3CCN(Cc4ccc(C#N)cc4)CC3)cc2)CC1 [Compound 5-78, tert-butyl 4-(4-(1-(4-cyanobenzyl)piperidin-4-yloxy)benzamido)piperidine-1-carboxylate]
10 to 20	O=C(c1ccc(OC2CCN(Cc3ccccc3)CC2)cc1)N1CCN(Cc2ccccn2)CC1 [Compound 5-105, (4-(1-benzylpiperidin-4-yloxy)phenyl)(4-(pyridin-2-ylmethyl)piperazin-1-yl)methanone]

same assay, conditions: Table 13, compounds of Table 6

EC50 [µM]	SMILES
< 0.1	O=C(NC1CCN(Cc2ccc(OC(F)(F)F)cc2)CC1)c1cc2cc(C(=O)N3CCC(Oc4ccc(S(=O)(=O)C(F)(F)F)cc4)CC3)ccc2o1 [Compound 6-136, N-(1-(4-(trifluoromethoxy)benzyl)piperidin-4-yl)-5-(4-(4-(trifluoromethylsulfonyl)phenoxy)piperidine-1-carbonyl)benzofuran-2-carboxamide]
< 0.1	CS(=O)(=O)c1ccc(CN2CCN(C(=O)c3ccc4oc(C(=O)NC5CCN(Cc6cccc(OC(F)(F)F)c6)CC5)cc4c3)CC2)cc1 [Compound 6-146, 5-(4-(4-(methylsulfonyl)benzyl)piperazine-1-carbonyl)-N-(1-(3-(trifluoromethoxy)benzyl)piperidin-4-yl)benzofuran-2-carboxamide]
< 0.1	O=C(Nc1ccc(Oc2ccc(F)cc2)nc1)c1cc2cc(CN3CCC(Oc4ccc(C(F)(F)F)cc4)CC3)ccc2o1 [Compound 6-29, N-(6-(4-fluorophenoxy)pyridin-3-yl)-5-((4-(4-(trifluoromethyl)phenoxy)piperidin-1-yl)methyl) benzofuran-2-carboxamide]
< 0.1	COc1ccc(CN2CCC(NC(=O)c3cc4cc(C(=O)N5CCN(c6ccc(Cl)cc6Cl)CC5)ccc4o3)CC2)cc1 [Compound 6-121, 5-(4-(2,4-dichlorophcnyl)piperazine-1-carbonyl)-N-(1-(4-methoxybenzyl)piperidin-4-yl)benzofuran-2-carboxamide]
< 0.1	N#Cc1ccc(CN2CCC(NC(=O)c3cc4cc(C(=O)N5CCN(c6ccc(C(=O)C7CC7)cc6)CC5)ccc4o3)CC2)cc1 [Compound 6-109, N-(1-(4-cyanobenzyl)piperidin-4-yl)-5-(4-(4-(cyclopropanecarbonyl)phenyl)piperazine-1-carbonyl)benzofuran-2-carboxamide]
< 0.1	CS(=O)(=O)c1ccc(CN2CCN(C(=O)c3ccc4oc(C(=O)NC5CCN(Cc6ccc(C#N)cc6)CC5)cc4c3)CC2)cc1C(F)(F)F [Compound 6-105, N-(1-(4-cyanobenzyl)piperidin-4-yl)-5-(4-(4-(methylsulfonyl)-3-(trifluoromethyl)benzyl)piperazine-1-carbonyl) benzofuran-2-carboxamide]
0.1 to 1	COc1ccc(CN2CCC(NC(=O)c3cc4cc(C(=O)N5CCN(Cc6ccc(S(C)(=O)=O)cc6)CC5)ccc4o3)CC2)cc1 [Compound 6-94, N-(1-(4-methoxybenzyl)piperidin-4-yl)-5-(4-(4-(methylsulfonyl)benzyl)piperazine-1-carbonyl) benzofuran-2-carboxamide]
< 0.1	COc1ccc(CN2CCC(NC(=O)c3cc4cc(C(=O)N5CCC(Oc6ccc(S(C)(=O)=O)cc6)CC5)ccc4o3)CC2)cc1 [Compound 6-164, N-(1-(4-methoxybenzyl)piperidin-4-yl)-5-(4-(4-(methylsulfonyl)phenoxy)piperidine-1-carbonyl) benzofuran-2-carboxamide]

same assay, conditions: Table 14, compounds of Table 7

EC50 [µM]	SMILES
1 to 10	COc1ccc(C(=O)C2CCN(C(=O)c3ccc(C(=O)NC4CCN(Cc5ccc(-n6ccnc6)cc5)C[C@H]4F)cn3)CC2)cc1 (stereo partly drawn) [Compound 7-42, N-((3,4-trans)-1-(4-(1H-imidazol-1-yl)benzyl)-3-fluoropiperidin-4-yl)-6-(4-(4-methoxybenzoyl)piperidine-1-carbonyl)nicotinamide]
< 1	COc1ccc(C(=O)C2CCN(C(=O)c3ccc(C(=O)NC4CCN(Cc5ccc(OC)c(F)c5)CC4(C)C)cn3)CC2)cc1 (centres unmarked) [Compound 7-95, N-(1-(3-fluoro-4-methoxybenzyl)-3,3-dimethylpiperidin-4-yl)-6-(4-(4-methoxybenzoyl)piperidine-1-carbonyl)nicotinamide]
< 1	Cc1nc2cc(OC3CCN(C(=O)c4ccc(C(=O)NC5CCN(Cc6ccc(C#N)cc6)CC5)cn4)CC3)ccc2s1 [Compound 7-22, N-(1-(4-cyanobenzyl)piperidin-4-yl)-6-(4-(2-methylbenzo[d]thiazol-5-yloxy)piperidine-1-carbonyl)nicotinamide]
1 to 10	Cc1cc(OC2CCN(C(=O)c3ccc(C(=O)Nc4ccc(Oc5ccc(C#N)cc5)nc4)cn3)CC2)ccc1S(C)(=O)=O [Compound 7-15, N-(6-(4-cyanophenoxy)pyridin-3-yl)-6-(4-(3-methyl-4-(methylsulfonyl)phenoxy)piperidine-1-carbonyl) nicotinamide]
< 1	N#Cc1ccc(OC2CCN(C(=O)c3ccc(C(=O)Nc4ccc(Oc5ccc(S(F)(F)(F)(F)F)cc5)nc4)nc3)CC2)cc1 [Compound 7-5, 5-(4-(4-cyanophenoxy)piperidine-1-carbonyl)-N-(6-(4-(pentafluorosulfanyl)phenoxy)pyridin-3-yl)picolinamide]
< 1	N#Cc1ccc(CN2CCC(NC(=O)c3ccc(C(=O)N4CCC(C(=O)c5ccc(N6CCOCC6)cc5)CC4)nc3)[C@H](F)C2)cc1 (stereo partly drawn) [Compound 7-75, N-((3,4-trans)-1-(4-cyanobenzyl)-3-fluoropiperidin-4-yl)-6-(4-(4-morpholinobenzoyl)piperidine-l-carbonyl)nicotinamide]
1 to 10	CC(=O)c1ccc(Oc2ccc(NC(=O)c3ccc(C(=O)N4CCC(Oc5ccc6c(c5)ncn6C)CC4)nc3)cn2)cc1 [Compound 7-46, N-(6-(4-acetylphenoxy)pyridin-3-yl)-6-(4-(1-methyl-1H-benzo[d]imidazol-5-yloxy)piperidine-1-carbonyl)nicotinamide]
